From publication PMC3984256, “A PCNA-Derived Cell Permeable Peptide Selectively Inhibits Neuroblastoma Cell Growth” (PLoS ONE, 2014)
Where a SMILES comes first, the peptide text is derived from it. [ ]: non-standard residue; d: D form.

Tests used:
[1] = tested on: human neural crest stem cells (7SM0032); format: cell-based; settings: 72 h
Description: (§1) The human NB cell lines, SK-N-DZ, SK-N-BE(2)c, SK-N-AS, SK-N-SH, and SK-N-FI were obtained from the American Type Culture Collection (Rockville, MD). Cells were maintained in DMEM with 10% fetal bovine serum (FBS), 100 units/ml penicillin, and 100 µg/ml streptomycin in the presence of 5% CO2 at 37°C. Human PBMCs from a healthy donor were purchased from Sanguine BioSciences (Valencia, CA) and grown in RPMI1640 with10% FBS, 100 units/ml penicillin, 100 µg/ml streptomycin, and 10 ng/ml IL-2 in the presence of 5% CO2 at 37°C. Human embryonic progenitor cell line 7SM0032 was acquired from Millipore (Billerica, MA) and grown in the hEPM-1 Media Kit purchased from the same company.
(§2) To measure cell growth, cells were seeded at 3×10^4/ml. After being allowed to attach overnight, cells were treated with various concentrations of the peptides for 72 h. Cell growth was measured by the CellTitor-Glo assay (Promega, Madison, WI) according to manufacturer's instruction. To measure apoptosis, cells were seeded at 1×10^5/ml onto a chamber slide. Once attached, cells were treated with the peptides for 48 h. Cells were fixed and analyzed by a TUNEL assay using the TMR red in situ cell death detection kit (Roche Diagnostics, Indianapolis, IN).

[2] = tested on: human peripheral blood mononuclear cells (PBMC); format: cell-based; settings: 72 h
Description: as §1, §2

[3] = tested on: breast, lung, and pancreatic cancer cell lines; test: Toxicity to breast, lung, and pancreatic cancer cell lines (data not shown); format: cell-based; settings: in comparison with non-malignant cell lines of respective tissue origins
synchronized cells = test: Cell cycle analysis of synchronized cells within 6 h (data not shown); format: cell-based; settings: 6 h after mimosine release
Description: Cells were seeded at 1×10^5/ml. Once attached, cells were treated with or without R9-caPep for 48 hours. Cells were fixed in 60% ethanol and stained with propidium iodide (PI). The cellular PI fluorescence intensity was determined by flow cytometry. The flow cytometry data were analyzed by the FlowJo program to model various cell populations.
Cells were seeded at 1×10^5/ml onto a chamber slide and were allowed to attach overnight. To analyze the interaction of PCNA with FEN1, LIGI, or Pol ä, we first synchronize cells at the G1/S boundary. The synchronization is achieved by starving cells in medium containing 0.25% FBS for 24 h. Cells were further cultured in the complete medium containing 400 µM of mimosine for 24 h. To release cells into S phase, cells were washed and incubated in mimosine-free medium containing 30 µM R9-caPep or R9-srbPep for 6 h. We pre-determined that the majority of cells were in the S-phase 6 h after mimosine was removed (data not shown). Cells were fixed in ice-cold methanol:acetone (50%:50%) for 10 min or in 4% paraformaldehyde for 20 min at room temperature. Cells were incubated with a goat polyclonal anti-PCNA antibody (Santa Cruz) and a mouse monoclonal anti-FEN1 antibody (Santa Cruz), a mouse anti-POLD3 antibody (Sigma, St. Louis, MO), or a mouse anti-LIGI antibody (Abcam, Cambridge, MA) for 1 h at room temperature. […]

SK-N-BE(2)c cells = test: TUNEL apoptosis assay, SK-N-BE(2)c; format: cell-based, human; settings: 40 µM, 48 h, six fields
Description: as §2

ãH2A.X level = test: γH2A.X western blot after γ-irradiation; format: cell-based; settings: 30 µM peptide, 2 h pretreatment, 5 Gy
Description: (§3) To study DNA damage and repair, attached cells were pretreated with the peptides for 2 h and were then ã-irradiated (5 Gy). After irradiation, cells were cultured in the presence of the peptides for the indicated time. For analyzing ãH2A.X foci formation, cells were fixed in a solution of methanol and acetone (70%:30% v/v) for 15 min at −20°C. The slides were air-dried for storage and rehydrated in PBS prior to immunostaining. Cells were stained by a mouse monoclonal antibody specific to ãH2A.X (Millipore, Billerica, MA) followed by an Alexa Fluor 488 conjugated anti-mouse IgG antibody. For analyzing Rad51 foci formation, cells were fixed in PBS buffered 4% paraformaldehyde at room temperature for 15 min. After being washed twice by PBS, cells were permeabilized in PBS containing 0.5% triton for 15 min on ice. The fixed and permeabilized cells were stained with a rabbit polyclonal antibody raised against the human Rad51 (Santa Cruz) followed by an Alexa Fluor 488 conjugated anti-rabbit IgG antibody. Stained cells were visualized and imaged by a confocal microscope.
Cell extracts were prepared by dissolving cell pellets directly into the Laemmli sample buffer and resolved in a 4–12% SDS polyacrylamide gel. Resolved proteins were blotted onto a nitrocellulose membrane. The membrane was blocked with 5% nonfat dry milk and incubated with an antibody specific to ãH2A.X (Millipore), total H2A.X (Cell Signaling Technology, Danvers, MA), MYCN (Cell Signaling Technology), or actin (Sigma) in the blocking buffer. After incubation with peroxidase-conjugated secondary antibodies, the protein of interest was detected using an ECL kit purchased from GE Healthcare.

ãH2A.X foci = test: γH2A.X foci immunofluorescence after γ-irradiation; format: cell-based; settings: 30 µM peptide, 2 h pretreatment, 5 Gy; five fields; vs R9-srbPep
Description: as §3

[4] = tested on: HR-mediated DSB repair, U2OS-derived DR-GFP cells; test: DSB repair reporter assay, HR (DR-GFP); format: cell-based; settings: 30 µM, GFP-positive cells 3 d after I-SceI transfection, normalized to R9-srbPep, triplicates
Description: The plasmid pCBASce expresses the rare cutting I-SceI meganuclease. The U2OS-derived cell lines, DR-GFP, EJ5-GFP, and SA-GFP contain a stably transfected reporter gene for DSB repair mediated by HR, end joining (EJ), and single-strand annealing (SSA), respectively. These cell lines were cultured in DMEM medium with 10% FBS at 37°C in the presence of 5% CO2.
DR-GFP, EJ5-GFP, and SA-GFP cell lines were seeded at 2.5×10^4 cells/cm^2 in a 12-well plate. Once attached overnight, cells were transfected with 1.2 µg of the pCBASce I-SceI expression plasmid mixed with 3.6 µl of Lipofectamine 2000 (Invitrogen) in 200 µl of Optimem media (Invitrogen). After incubation for 3 h, the media containing transfection complexes was aspirated and replaced with fresh media containing 30 µM of the peptides. The HR, EJ, and SSA-mediated DSB repair, indicated by the restoration of a functional GFP gene in the respective cell lines, were quantified by measuring the relative abundance of GFP-positive cells by flow cytometry 3 d after transfection.

## CC[C@H](C)[C@H](NC(=O)CNC(=O)[C@H](CC(C)C)NC(=O)[C@H](CS)NC(=O)[C@H](CS)NC(=O)[C@@H](CCCNC(=N)N)NC(=O)[C@@H](CCCNC(=N)N)NC(=O)[C@@H](CCCNC(=N)N)NC(=O)[C@@H](CCCNC(=N)N)NC(=O)[C@@H](CCCNC(=N)N)NC(=O)[C@@H](CCCNC(=N)N)NC(=O)[C@@H](CCCNC(=N)N)NC(=O)[C@@H](CCCNC(=N)N)NC(=O)[C@H](N)CCCNC(=N)N)C(=O)N1CCC[C@H]1C(=O)N[C@@H](CCC(=O)O)C(=O)N[C@@H](CCC(N)=O)C(=O)N[C@@H](CCC(=O)O)C(=O)N[C@@H](Cc1ccc(O)cc1)C(=O)O [R9-caPep] (H-[dR][dR][dR][dR][dR][dR][dR][dR][dR]CCLGIPEQEY-OH; N-terminus and C-terminus assumed)
[1]
  IC50: > 100 µM
[2]
  IC50: 98 µM
[3]
  toxicity to breast, lung, and pancreatic cancer cell lines vs non-malignant lines: selectively toxic to breast, lung, and pancreatic cancer cell lines
Synchronized cells
  cell cycle progress within 6 h: neither peptide significantly affected cell cycle progress within 6 h
SK-N-BE(2)c cells
  apoptosis: TUNEL positivity: increased TUNEL positivity
ãH2A.X level
  ãH2A.X level within 30 min after irradiation: increased within 30 min following ã-irradiation in cells treated with either peptide
ãH2A.X level; 48 h
  ãH2A.X level 48 h after irradiation: remained elevated
ãH2A.X foci
  resolution of ãH2A.X foci: delayed the resolution of ãH2A.X foci induced by ã-irradiation
[4]
  HR-mediated DNA repair: significantly inhibited HR-mediated DNA repair
